# Test results published in patent US9770482B2, “Targeting the EGFR-SGLT1 interaction for cancer therapy” (The University of Houston System, priority 2013, dated 2017).
# “Also recorded” adds a separate entry of the source. Peptide text beside a SMILES is read from it. * marks the point of attachment. Cbz = O=C(OCc1ccccc1)*
# B1: flag tagged human SGLT1 (sodium/glucose co-transporter 1) (other, UniProt P13866 1-664, looked up)
# chain: MDSSTWSPKTTAVTRPVETHELIRNAADISIIVIYFVVVMAVGLWAMFSTNRGTVGGFFLAGRSMVWWPIGASLFASNIGSGHFVGLAGTGAASGIAIGGFEWNALVLVVVLGWLFVPIYIKAGVVTMPEYLRKRFGGQRIQVYLSLLSLLLYIFTKISADIFSGAIFINLALGLNLYLAIFLLLAITALYTITGGLAAVIYTDTLQTVIMLVGSLILTGFAFHEVGGYDAFMEKYMKAIPTIVSDGNTTFQEKCYTPRADSFHIFRDPLTGDLPWPGFIFGMSILTLWYWCTDQVIVQRCLSAKNMSHVKGGCILCGYLKLMPMFIMVMPGMISRILYTEKIACVVPSECEKYCGTKVGCTNIAYPTLVVELMPNGLRGLMLSVMLASLMSSLTSIFNSASTLFTMDIYAKVRKRASEKELMIAGRLFILVLIGISIAWVPIVQSAQSGQLFDYIQSITSYLGPPIAAVFLLAIFWKRVNEPGAFWGLILGLLIGISRMITEFAYGTGSCMEPSNCPTIICGVHYLYFAIILFAISFITIVVISLLTKPIPDVHLYRLCWSLRNSKEERIDLDAEEENIQEGPKETIEIETQVPEKKKGIFRRAYDLFCGLEQHGAPKMTEEEEKAMKMKMTDTSEKPLWRTVLNVNGIILVTVAVFCHAYFA
# notes: whole, on cells; Plasmid described in Blessing et al. 2012; Expressed in HEK293 cells and immunoprecipitated with anti-flag antibody; also called SGLT1-Flag; flagged SGLT1; not shown: Flag tag
# B2: endogenous SGLT1 of PC3 cells (other, UniProt P13866 1-664, looked up)
# chain: B1 chain
# notes: whole, on cells; Immunoprecipitated from PC3 lysates with anti-SGLT1 antibody
# Experiments:
# [1] = tested on: non-cancerous HEK293 cells; experiment: Trypan blue uptake assay, HEK293 cells; assay type: cell-based; details: FIG. 6
# Source text: (§1) In another embodiment, a peptide can destabilize EGFR and SGLT1 proteins of cancer cells. FIG. 5A, by way of example only, illustrates an embodiment of a peptide, called ESD-01 (SEQ ID NO: 001), which can destabilize EGFR and SGLT1 proteins of cancer cells. In one embodiment, the ESD-01 peptide can be selected from the SGLT1 interacting domain of EGFR. In another embodiment, ESD-01 comprises amino acids 1049-1062 of a human EGFR protein (GenBank: AAH94761.1). In still another embodiment, the effects of ESD-01 on the stability of EGFR and SGLT1 in cultured cells (e.g, PC3, MDA-MB-231, and HCT116 cells) can be determined by Western blot analysis. […] In still another embodiment, the effects of ESD-01 on the survivability of cultured cancer cells (e.g, PC3, MDA-MB-231, and HCT116 cells) can be determined by trypan blue uptake assay.
# (§2) Cell growth was determined by 3-(4,5-dimethylthiazole-2-yl)-2,5-diphenyltetrazolium Bromide (MTT) assay in 96-well plates according to the protocol provided by the manufacture. Briefly, 5000 cells suspended in 100 μL medium were seeded in each well of a 96-well plate. […] Absorbance was measured by a MultiSkan plate reader (Thermo Fisher Scientific, NC) at 570 nm. […] Cell viability was determined by trypan blue uptake assay. The percentage of live cells were counted in areas (n=3 for each sample) randomly selected under 10× magnificence of triplicates.
# [2] = tested on: breast cancer MDA-MB-231 cells; experiment: Trypan blue uptake assay, MDA-MB-231 cells; assay type: cell-based; details: 100 μM for 24 hours, FIG. 6
# Source text: as §1, §2
# [3] = tested on: cancer cells; experiment: Killing of cancer cells in vitro, L- versus D-amino acid peptide; assay type: cell-based
# [4] = tested on: SGLT1; experiment: Western blot of SGLT1 level in PC3 cells; assay type: cell-based; details: FIG. 5B
# Source text: as §1
# (§3) For Western blot (WB) analysis, cells were lysed with RIPA buffer (150 mM NaCl, 50 mM Tris-HCl, pH 7.4, 0.1% SDS, 1% TritonX-100, 1 mM EDTA, 1 mM PMSF, 20 μg/ml aprotinin, 20 μg/ml leupeptin, 20 μg/ml pepstatine, 1% sodium deoxycholate, 1 mM NaF, 1 mM Na3VO4, in H2O). Proteins separated by 8% SDS-PAGE were transferred to PVDF membrane followed by blocking with 5% nonfat dry milk and then incubation with primary antibodies at optimized concentrations for overnight at 4° C. […]
# [5] = tested on: colon cancer HCT116 cells; experiment: Trypan blue uptake assay, HCT116 cells; assay type: cell-based; details: 100 μM for 24 hours, FIG. 6
# Source text: as §1, §2
# [6] = tested on: prostate cancer Du145 cells; experiment: Trypan blue uptake assay, Du145 cells; assay type: cell-based; details: 100 μM for 24 hours, FIG. 6
# Source text: as §1, §2
# [7] = tested on: prostate cancer PC3 cells; experiment: Trypan blue uptake assay, PC3 cells; assay type: cell-based; details: 100 μM for 24 hours, FIG. 6
# Source text: as §1, §2
# [8] = tested on: EGFR; experiment: Western blot of EGFR level in PC3 cells; assay type: cell-based; details: FIG. 5B
# Source text: as §1, §3
# [9] = tested on: LNCaP cells; experiment: MTT cell growth assay, LNCaP cells; assay type: cell-based; details: phlorizin 50 μM with/without Gefitinib 10 μM or Erlotinib 10 μM, 48 hs, FIG. 4D
# Method: (§4) It is well known that an increase in glucose levels can activate EGFR, that SGLT1 is over-expressed in prostate cancer tissues, and that prostate cancer is resistant to EGFR inhibitors. […] In an embodiment, SGLT1 and EGFR can synergistically promote prostate cancer growth. […] In one embodiment, the growth inhibitory effects of the treatments may be determined. […]
# as §2, with “manufacture.” for “manufacture. Briefly, 5000 cells suspended in 100 μL medium were seeded in each well of a 96-well plate.”, “triplicates. […]” for “triplicates.”
# [10] = tested on: PC3 cells; experiment: MTT cell growth assay, PC3 cells; assay type: cell-based; details: phlorizin 50 μM with/without Gefitinib 10 μM or Erlotinib 10 μM, 48 hs, FIG. 4C
# Method: as §4
# as §2, with “manufacture.” for “manufacture. Briefly, 5000 cells suspended in 100 μL medium were seeded in each well of a 96-well plate.”, “triplicates. […]” for “triplicates.”
# [11] = molecular target: T1, EGFR-SGLT1 interaction (Homo sapiens, UniProt P00533); experiment: Immunoprecipitation coupled Western blot of EGFR-HA and SGLT1-Flag interaction in co-transfected HEK293 cells; assay type: cell-based; details: WT-EGFR and SGLT1 co-transfected HEK293 cells; EGF 10 ng/ml or EGF plus AEE788 5 μM, 30-60 min; FIG. 3A
# T1 construct: The full-length human EGFR was amplified with a forward primer EGFR-F; expressed in transfected cells; host or cells: HEK293
# [12] = molecular target: T2, endogenous EGFR-SGLT1 interaction (Homo sapiens, UniProt P00533); experiment: Immunoprecipitation coupled Western blot of endogenous EGFR and SGLT1 interaction in PC3 cells; assay type: cell-based; details: PC3 cells treated with EGF or AEE788; FIG. 3B
# T2 construct: endogenous in cells; host or cells: PC3
# [13] = tested on: SGLT1; experiment: Western blot of SGLT1 level in SGLT1 and ΔAutoPhos-EGFR co-transfected HEK293 cells; assay type: cell-based, human; details: FIGS. 2C-2D
# Source text: In an embodiment, to determine whether proteasome is involved in loss of interaction with EGFR induced down-regulation of SGLT1, SGLT1 and ΔAutoPhos-EGFR co-transfected HEK293 cells can be treated with a proteasome inhibitor, such as but not limited to […]. For example, FIG. 2C illustrates a Western blot analysis of the effect of a proteasome inhibitor MG132 on the down-regulation of SGLT1 by ΔAutophos-EGFR. Actin may be used as a loading control. FIG. 2D, by way of example only, illustrates a densitometric quantification of bands in the Western blot of FIG. 2C. Asterisk marks indicate statistical significance between the linked representative groups from triplicate experiments.
# HEK293 cells were transfected with plasmids expressing flagged SGLT1 alone or with indicated HA tagged EGFR constructs. After 24 hours of transfection, cells were washed in 1× phosphate buffered solution and lysed with RIPA buffer (50 mM Tris-HCl, pH 8.0, with 150 mM sodium chloride, 1.0% Igepal CA-630 (NP-40), 0.5% sodium deoxycholate, and 0.1% sodium dodecyl sulfate), supplemented with a protease inhibitors cocktail for 6 hours on a shaker at 4° C. The cell lysates were then centrifuged for 2 minutes at 12000× rpm. Supernatant were then incubated with sepharose protein A/G beads conjugated with anti-flag or anti-SGLT1 antibody for overnight at 4° C. […]
# [14] = molecular target: T3, wild type EGFR, HA tagged (human, full length, C-terminal HA tag) (human, UniProt P00533 25-1210); experiment: co-IP of SGLT1-Flag, Western blot for EGFR-HA, HEK293 cells treated with EGF or EGF plus AEE788
# T3 construct: whole, on cells; Expressed by transient transfection in HEK293 cells; tested in RIPA lysates by co-immunoprecipitation; also called WT; WT-EGFR; not shown: C-terminal HA tag
# [15] = molecular target: T4, endogenous EGFR of PC3 cells (UniProt P00533 25-1210, limits assumed); experiment: co-IP of endogenous SGLT1 (anti-SGLT1), Western blot for EGFR and pEGFR, PC3 cells treated with EGF or AEE788
# T4 construct: whole, on cells; Co-precipitated from PC3 lysates with endogenous SGLT1
molecule,measurement,setting,value
ESD-01: synthesized peptide from the SGLT1 interacting domain of EGFR; comprises amino acids 1049-1062 of a human EGFR protein (GenBank: AAH94761.1) (LVWKQSCSSTSSTH; listed as Homo sapiens),survivability,[1],cannot reduce the survivability
same,survivability,[2],significantly reduces the survivability
same,"killing cancer cells in vitro, peptide made of L-amino acids versus D-amino acids",[3],equally effective
same,SGLT1 level,[4]; 200 μM for 6 hours,significantly down-regulates
same,survivability,[5],significantly reduces the survivability
same,survivability,[6],significantly reduces the survivability
same,survivability,[7],significantly reduces the survivability
same,EGFR level,[8]; 200 μM for 6 hours,significantly down-regulates
O=C(CCc1ccc(O)cc1)c1c(O)cc(O)cc1O[C@@H]1O[C@H](CO)[C@@H](O)[C@H](O)[C@H]1O [Phlorizin],sensitization to growth inhibitory effects of Gefitinib and Erlotinib,[9],sensitizes; also recorded: significantly sensitize
same,sensitization to growth inhibitory effects of Gefitinib and Erlotinib,[10],sensitizes; also recorded: significantly sensitize
CCN1CCN(Cc2ccc(-c3cc4c(N[C@H](C)c5ccccc5)ncnc4[nH]3)cc2)CC1 [AEE788],effect on EGFR-SGLT1 interaction (EGFR co-immunoprecipitated with SGLT1),[11],neither EGF nor AEE788 significantly affects the EGFR-SGLT1 interaction
same,effect on endogenous EGFR-SGLT1 interaction,[12],neither EGF nor AEE788 affect the EGFR-SGLT1 interaction
CC(C)C[C@@H](C=O)NC(=O)[C@H](CC(C)C)NC(=O)[C@H](CC(C)C)NC(=O)OCc1ccccc1 [MG132] (Cbz-Leu-Leu-Leu-aldehyde),inhibition of ESD-01 induced SGLT1 down-regulation,[4]; ESD-01 200 μM for 6 hours,inhibited
same,inhibition of down-regulation of SGLT1,[13],can inhibit the down-regulation of SGLT1
same,inhibition of ESD-01 induced EGFR down-regulation,[8]; ESD-01 200 μM for 6 hours,inhibited
B1,binding result,[14],binds
B2,binding result,[15],binds
